From a melting point compilation (Tetko et al.; mined from patent text by program, amines drawn as free bases though some values may be those of a salt)
Residues, ends and D or L forms follow the SMILES beside them. *: point of attachment. Tos = Cc1ccc(S(=O)(=O)*)cc1

melting point [°C] | SMILES
77 to 78 | CCOC(=O)CCCCCCC(=O)c1ccc2cc(OC)ccc2c1
179 to 184 | COc1ccccc1N1CCCN(c2ccnc3sc(C(N)=O)c(N)c23)CC1
113 to 115 | COc1cc(OC)cc(C(=O)NCC(=O)N2c3ccccc3N(Cc3ccccc3)C(=O)[C@H]3CCC[C@H]32)c1 (relative stereo)
223 | Cc1ccc2c(c1)C=Cc1cc(C)ccc1C2c1cn(-c2ccnc(NC(Cc3c[nH]cn3)C(=O)O)n2)c(=O)[nH]c1=O (configuration not stated)
271 | N#Cc1c(N2CCN(C(=O)c3cccs3)CC2)c2sccc2n(Cc2cccc(F)c2)c1=O
150 to 151 | CC(C)(C)C(NC(=O)Cc1ccc2ncccc2c1)NC(=NC#N)Nc1cccc2ncccc12 (configuration not stated)
159 to 161 | COc1ccc(C(=O)CC(C#N)c2ccc3c(c2)OCO3)cc1OC (configuration not stated)
215 to 218 | COCC#Cc1cc2c(O)c(C(=O)NCc3ccc(Cl)cc3)cnc2s1
136 to 137 | CCOc1nn(Cc2ccc(OCn3nnc4ccccc43)cc2)cc1CCC(=O)O
121 to 123 | COc1cc2c(cc1OC)CN(CCCCNC(=O)c1cc(I)ccc1OCCF)CC2
174 to 177 | CC(N1CCC(n2c(=O)[nH]c3ccccc32)CC1)N1Sc2ccccc2C1C(N)=O (configuration not stated)
217 to 219 | COc1ccc2c(c1)C(=NO)C(=O)N2c1ccc(F)cc1
165 to 167 | COc1ccc(C2=NN(c3cccc(C(=O)O)c3)C(=O)C(C)(C)C2)cc1OC
224 to 226 | Cc1ccccc1-c1cnc2c(C(F)(F)F)cccc2c1-c1cccc(NC(=O)Nc2ccccc2Cl)c1
109 | CN(C)CCOc1ccc2ccc(NC(=O)c3ccccc3)nc2n1
66 | CCO[C@H](C(=O)N1C(=O)OC[C@@H]1Cc1ccccc1)[C@H](O)c1ccc2oc(Cc3nc(-c4ccccc4)oc3C)cc2c1

melting point [°C] | SMILES
241 to 242 | CC(=O)c1ccc(-n2c(-c3cc(-c4ccncc4)c(N4CCOCC4)s3)nc3ccccc3c2=O)cc1
139 to 140 | CCCN1C(=O)c2cnc(-c3ccccc3)nc2N(C(=O)CCl)c2ccccc21
197 to 199 | COc1ccc(C(=O)Nc2cc(OC)c(Cl)cc2OC)cc1F
154 to 155 | CC(C)CCC1(c2ccccc2)CC(O)=C(Sc2ccccc2)C(=O)O1 (configuration not stated)
149 to 150 | COc1ccc(Cc2cnc(NCCCCc3ncc(Br)cc3C)[nH]c2=O)cc1
118 to 119 | CCC(=O)NCc1ccc2ccn(C3CCN(CCc4ccccc4F)CC3)c2c1
90 to 91 | COc1cccc(N2CCN(C[C@H]3COc4ccc5nc(C)ccc5c4O3)CC2)c1
194 to 195 | Cc1nc(CCOc2ccc(CC3SC(=N)NC3=O)cc2)oc1-c1ccccc1 (configuration not stated)
271 to 273 | COc1cc(C(=O)NS(=O)(=O)c2ccccc2C)ccc1Cn1cc(/C=C/C(=O)N(C)C)c2ccc(/C=C/C(=O)N(C)C)cc21
130 to 132 | CCOC(=O)N1C=CC(c2c(-c3ccccc3)nn3ccccc23)C(Cl)=N1 (configuration not stated)
300 | O=S(=O)(c1ccc(O)cc1)c1ncn(-c2ccccc2)c1-c1ccccc1
231 to 232 | CCOc1ccc(-c2csc(-c3cccc(C(=O)O)c3)n2)cc1
255 to 257 | O=C(Nc1ccc(N2CCCC2)nc1)c1cc2cc(F)ccc2n1Cc1ccncc1
132 | CNC(=O)[C@@H]1C=CCN1S(=O)(=O)c1ccc(Cl)c(COc2cccc3c(-n4ccnc4)cc(C)nc23)c1Cl
168 | COc1cccc(Oc2c(NS(=O)(=O)c3ccc(C(C)(C)C)cc3)ncnc2SCCOc2ncccn2)c1
150 | COc1ccc2ccc(N3C(=O)c4ccccc4C3CC(=O)CCC(C)C)nc2n1 (configuration not stated)

Second part, the compound before the results:

SMILES | melting point [°C]
COc1ccc(NS(C)(=O)=O)cc1C(=O)NC1CCN(C2CCCCC2)C1 (configuration not stated) | 170 to 172
CC1(C)CCC(C)(C)c2cc(NC(=O)c3ccc(C=CC(=O)O)cc3)ccc21 | 226 to 227
C=CCSC(=S)N1Cc2[nH]c3ccccc3c2CC1C(=O)O (configuration not stated) | 161 to 162
CCCCCCCS(=O)(=O)c1nn2c(=O)c(OC)cnc2s1 | 106 to 109
CCOC(=O)N1CCCC(NC(=O)c2ccc(Cl)c(Cl)c2)C12CCCCC2 (configuration not stated) | 74 to 77
COC(=O)C(CC1CCCC1)c1ccc(I)cc1 (configuration not stated) | 51 to 54
CC(C)(N)c1ccc(C(=O)Nc2cn3cc(Cl)ccc3n2)cc1 | 235 to 237
O=C(CCCCCNC(=O)c1cccc2ccccc12)NO | 118 to 119
O=C1c2ccccc2Cc2c(O)cccc21 | 230 to 233
NC(=O)C[C@H](NC(=O)c1ccccn1)C(=O)O | 171 to 172
CCCNC(=O)c1ccc(Nc2nc(OCC3CCCCC3)c3nc[nH]c3n2)cc1 | 226 to 228
CCOC(=O)C=C1CSC2=C1SCC=NC2 | 86 to 87
O=C1C(CCC(O)c2ccc(F)cc2)C(c2ccc(-c3ccccc3O)cc2)N1c1ccc(F)cc1 (configuration not stated) | 101
CCc1c(CC(=O)O)c(C)nc(C)c1Cc1nc2c(F)c(F)cc(F)c2s1 | 193 to 195
O=C(NCCc1c[nH]c2ccccc12)C1CCCCC1 | 98 to 99
CCCCc1nc2cccc(CC#N)c2n1Cc1ccccc1Cl | 124 to 125
O=[N+]([O-])c1ccc(NC2CCCCC2)c([N+](=O)[O-])c1 | 153
COCn1c(-c2nc3c(OC)ccc(N4CCOCC4)c3s2)nc2ccc(N3CCOCC3)nc21 | 126 to 128
CC(C)(C)C(CS(=O)(=O)c1ccc(Oc2ccc(OC(F)(F)F)cc2)cc1)N(O)C=O (configuration not stated) | 160
Cc1cc(C)n(-c2nc(Nc3ccc(C(F)(F)F)cc3)c3ccccc3n2)n1 | 219 to 220
CC#CCNC(=NC#N)SC | 180 to 183
COC(=O)c1ccc(Oc2cccnc2)c(N)c1 | 101

SMILES | melting point [°C]
OCC12CO[C@@H](c3ccc(C(F)(F)F)cc3)N1[C@H](c1ccc(C(F)(F)F)cc1)OC2 | 120
CCOC(=O)C1=C(COCC#CC(N)=O)NC(C)=C(C(=O)OC)C1c1cccc(Cl)c1Cl (configuration not stated) | 147 to 148
NCCNCCNc1ccc2c3c(nn2CCO)-c2c(O)ccc(O)c2C(=O)c13 | 185 to 190
CCCc1cc(O)nc(SC)n1 | 158
O=C1NC(=S)CCC1N1Cc2c(cccc2[N+](=O)[O-])C1=S (configuration not stated) | 248 to 250
Cc1nc2ccc(Cl)cc2n2c(-c3ccccc3Cl)nnc12 | 209
CC(C)Sc1nc(-c2ccc(F)cc2)c(-c2ccncc2)[nH]1 | 263 to 264
CC(C)(CF)C(O)C(c1ccc(Cl)cc1Cl)n1cncn1 (configuration not stated) | 98 to 100
CCCC(c1ccc(C)cc1)n1c(C(=O)OC)cnc1S (configuration not stated) | 209 to 211
C=CC1(CC)OC(=O)c2ccc(Oc3ccc(C(F)(F)F)cc3Cl)cc21 (configuration not stated) | 77 to 79
Fc1ccc(-c2cc(Cl)c3sccc3n2)cc1 | 119 to 121
C=Cn1cc(C(=O)O)c(=O)c2cc(F)c(N3CCC4CCC(C3)N4C)cc21 (configuration not stated) | 214 to 215
Cc1cc(C(O)CN2CCC(O)(c3ccc4c(c3)COCC4)CC2)ccc1O (configuration not stated) | 178
CC12CCC3C4CCC(OCc5ccccc5)CC4CCC3C1C=CC2=O (configuration not stated) | 119 to 120
CCCCCCCCCCCCc1ccc(S(=O)(=O)Nc2nnc(CC)s2)cc1 | 93 to 94
O=C(c1ccc(Cl)cc1)N1CCC(=Cc2ccc(C3=NCCO3)cc2F)CC1 | 150 to 152
CC(C#N)c1coc2cc(I)ccc12 (configuration not stated) | 71 to 72
Cc1ccc(Cn2nc(C(=O)NC3C(C)CCCC3C)cc2-c2ccc(Cl)c(Cl)c2)cc1Cl (configuration not stated) | 59.9
Cc1nn(-c2ccncc2)c2nc3cc(F)c(F)cc3c(Cl)c12 | 226 to 228
N#CC=C1CCN(c2ccc(N3C[C@H](CNC(=O)CBr)OC3=O)cc2F)CC1 | 160 to 162
COc1cccc(-c2nc(NO)nc(Nc3cccc([N+](=O)[O-])c3)n2)c1 | 197 to 198
Cc1cn(-c2cc(C#N)cc(C(F)(F)F)c2)cn1 | 127 to 128

SMILES | melting point [°C]
OCc1cn(-c2ccc(SC(F)(F)F)c(Cl)c2)cn1 | 105 to 106
O=C(O)CCCc1cc2cc(C(F)(F)F)ccc2n1S(=O)(=O)c1ccc2c(c1)CCO2 | 144 to 149
Cc1cc(C)c(Oc2ccc(C=NNC(N)=O)cc2)c(C)c1 | 189 to 190
CN(CC(C)(C)c1ccc(Cl)c(Cl)c1)C(=O)Nc1c(F)cc(F)cc1CCc1cc(C(C)(C)C)c(O)c(C(C)(C)C)c1 | 145 to 147
CC(=O)c1ccc(-c2coc3ccc(-c4nnc(C)o4)cc23)cc1 | 197 to 198
CS(=O)(=O)N(Cc1cccnc1)c1cccc([N+](=O)[O-])c1 | 131 to 133
O=C(CCc1ccc(Br)cc1)Cn1ccnc1 | 71 to 73
CN1C(=O)N(CC(COc2ccc(-c3ccc(S(N)(=O)=O)cc3)cc2)N(O)C=O)C(=O)C1(C)C (configuration not stated) | 203 to 205
CCCCCCCCCCCCCCCCCC(=O)c1c[nH]c2cc(C(=O)O)ccc12 | 268 to 270
CCC(C=O)c1ccc(S(=O)(=O)NC)cc1 (configuration not stated) | 202 to 204
Cc1c(C)c2c(c(C)c1NC(=O)CC(C)(C)C)C(c1ccc(C3OCCO3)cc1)CO2 (configuration not stated) | 193 to 194
c1ccc(Cn2cnc3c(OC4CN5CCC4CC5)nccc32)cc1 (configuration not stated) | 162 to 183
CSc1ccc(NC(=O)N(C)O)cc1 | 146 to 148
Cc1ccc(S(=O)(=O)N2CCC[C@H]2C(=O)N[C@@H](CCC(N)=O)C(=O)O)cc1 (Tos-Pro-Gln-OH) | 45 to 55
O=C1CSCCN1c1ccc(C(F)(F)F)cc1 | 79 to 80
CNc1nc(-c2ccc(OC)cc2)c(-c2cccnc2)s1 | 158 to 159
CCc1nc(=O)c2cc3ccccc3nc2[nH]1 | 240 to 245
CC(C)(C)C(Cl)=NNc1ccc(Cl)cc1 | 42 to 43
Cc1cc(-c2cc(C(F)(F)F)n3ncc(C(=O)Nc4cccc(S(=O)(=O)N5CCOCC5)c4)c3n2)ccc1C(F)(F)F | 272
CC(=O)c1cc(CS(C)=O)ccc1O (configuration not stated) | 95 to 97
CNS(=O)(=O)/C=C/c1ccc2c(c1)c(C1CCN(C)CC1)cn2C | 155 to 159
